Results from patent US20220313620A1, “COMPOSITION FOR PREVENTING AND TREATING TAUOPATHIES” (SERVICIO ANDALUZ DE SALUD, priority 2019, published 2022).

Tested on: Pyruvate Kinase Liver/RBC (Pklr)
Test: Liver pyruvate kinase gene expression (qPCR) after acute oral gavage
Type: in vivo
Conditions: oral 100 mg/kg, adult male Wistar rats, FIG. 2D
Description: After 18 hours of fasting, D-Pinitol dissolved in water was administered acutely by gavage (100 mg/kg in a first study, and 500 mg/kg in a subsequent study). After administration, the animals were sacrificed in groups at different times (being time 0 the administration of D-Pinitol). For the first study (100 mg/kg), groups of animals were sacrificed at times: 10, 20, 30, 60, 120, 240 and 360 minutes after administration; for the second study (500 mg/kg), animals were sacrificed at times: 60, 120 and 240 minutes after administration. As a control group, a group was administered only with water (by gavage). […]
Total RNA was extracted from tissue portions of liver (100-300 mg) using the Trizol® method according to the manufacturer's instructions (GIBCO BRL Life Technologies). […] Total RNA was quantified using a spectrophotometer (Nanodrop 1000 Spectrophotometer, Thermo Scientific) to ensure A260/280 ratios of 1.8 to 2.0. […]
Real-time qPCR was performed following the criteria of the MIQE guidelines (Bustin, S. A. et al. The MIQE guidelines: minimum information for publication of quantitative real-time PCR experiments. Clin Chem. 55,611-622 (2009)). […] For all reference and target gene studies, two independent biologic samples of each experimental condition were evaluated in technical duplicates. […]

COC1[C@@H](O)[C@@H](O)C(O)[C@H](O)[C@H]1O (stereo partly drawn) [DPIN, (1S,2S,4S,5R)-6-methoxycyclohexane-1,2,3,4,5-pentol]
expression of Pyruvate Kinase: Inhibition
